This is an account of results in ChEMBL document CHEMBL1201862, “PubChem BioAssay data set” (2004).

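Each compound was tested at five concentrations against cells in 96-well plates for 48 hours. Here, GI50 denotes the concentration required for 50% inhibition of growth.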 The source made the active and inactive calls. Rule as the data show it: active = GI50 up to about 1.1 µM and inactive = higher.

Some test systems named below: A498; BT-549; CAKI-1; HCC 2998; HCT-15; HOP-92; K562; NCI-H460; NCI/ADR-RES; OVCAR-5; OVCAR-8; PC-3; RXF 393; SF-268; SK-MEL-2; SNB-19; SR; TK-10; UACC-257; UACC-62.
Holding throughout (assay): NCI anticancer screen, dose series, 48 h

For `CCOC(=O)c1cc2c(OC)cc(OC)cc2oc1=O`, the GI50 in the assay with A498 was > 100 µM (inactive); in the assay on BT-549, 76 µM (inactive); with CAKI-1 it was 55.3 µM (inactive); in the assay on HCC 2998, > 100 µM (inactive); in the assay with HCT-15, more than 100 µM; with HOP-92, 46.8 µM (inactive). In addition, the GI50 with K562, in the assay with NCI-H460, in the assay with NCI/ADR-RES, in the assay with OVCAR-5, in the assay with OVCAR-8 and in the assay on PC-3 was > 100 µM (inactive) each time. In addition, the GI50 in the assay with RXF 393 is 57.3 µM (inactive); in the assay on SF-268 it was 42.3 µM (inactive); in the assay with SK-MEL-2, > 100 µM (inactive); in the assay on SNB-19, 41.8 µM (inactive); in the assay on SR it was > 100 µM (inactive); in the assay with TK-10, > 100 µM (inactive). Moreover, the GI50 in the assay with UACC-257 and in the assay with UACC-62 was > 100 µM (inactive) each time.
